Measurements: ChEMBL document CHEMBL5096216, “Rational Design, Synthesis, and Biological Evaluation of Novel S1PR2 Antagonists for Reversing 5-FU-Resistance in Colorectal Cancer” (J Med Chem, 2022)

How the values were obtained:
SW620/5-FU [1] = assay: Antitumor activity against human SW620/5-FU cells xenografted in nude mouse assessed as tumor volume at 15 mg/kg, iv administered once daily and measured on day 1 (reference value: 105 +/- 14 mm3); type: functional; conditions: time 1 day
HT-29 [2] = assay: Antiproliferative activity against human HT-29 cells assessed as reduction in cell viability at 40 uM incubated for 48 hrs by MTT assay; type: functional
HCT-116 [3] = assay: Antiproliferative activity against human HCT-116 cells assessed as reduction in cell viability incubated for 48 hrs by MTT assay; conditions: HCT-116, 48 h
SW-620 [4] = assay: Antiproliferative activity against human SW620 cells assessed as reduction in cell viability incubated for 48 hrs by MTT assay; type: functional, cell-based; conditions: SW-620, 48 h
HCT-116 [5] = assay: Antiproliferative activity against human HCT-116 cells assessed as cell growth inhibition at 40 uM incubated for 48 hrs by MTT assay relative to control; type: functional; parameters: scale not given: the % may be the effect or the level left
SW-620 [6] = assay: Antiproliferative activity against human SW620 cells assessed as cell growth inhibition at 40 uM incubated for 48 hrs by MTT assay relative to control; type: functional; parameters: scale not given: the % may be the effect or the level left
HT-29 [7] = assay: Antiproliferative activity against human HT-29 cells assessed as cell growth inhibition at 40 uM incubated for 48 hrs by MTT assay relative to control; type: functional; parameters: scale not given: the % may be the effect or the level left
HCT-116 [8] = assay: Antiproliferative activity against human HCT-116 cells overexpressing DPD assessed as reduction in cell viability at 40 uM incubated for 48 hrs by MTT assay; type: functional
SW620/5-FU [9] = assay: Antiproliferative activity against human SW620/5-FU cells assessed as reduction in cell viability at 40 uM incubated for 48 hrs by MTT assay; type: functional
NCM460 = assay: Cytotoxicity against human NCM460 cells assessed as reduction in cell viability at 40 uM incubated for 48 hrs by MTT assay; type: toxicity, cell-based; conditions: ncm460, 48 h
SW620/5-FU [10] = assay: Induction of apoptosis in human SW620/5-FU cells assessed as viable cells at 40 uM incubated for 24 hrs by Annexin-V/PI staining based flow cytometry assay (reference value: 94.3%); type: functional; conditions: read-out: Activity
SW620/5-FU [11] = assay: Induction of apoptosis in human SW620/5-FU cells assessed as early apoptotic cells at 40 uM incubated for 24 hrs by Annexin-V/PI staining based flow cytometry assay (reference value: 2.73%); type: functional
SW620/5-FU [12] = assay: Induction of apoptosis in human SW620/5-FU cells assessed as late apoptotic cells at 40 uM incubated for 24 hrs by Annexin-V/PI staining based flow cytometry assay (reference value: 2.97%); type: functional
SW620/5-FU [13] = assay: Induction of apoptosis in human SW620/5-FU cells assessed as necrotic cells at 40 uM incubated for 24 hrs by Annexin-V/PI staining based flow cytometry assay (reference value: 0%); type: functional
SW620/5-FU [14] = assay: Antitumor activity against human SW620/5-FU cells xenografted in nude mouse assessed as tumor volume at 15 mg/kg, iv administered once for every 3 days and measured on day 15 (reference value: 1991 +/- 469 mm3); type: functional; conditions: time 15 day
SW620/5-FU [15] = assay: Antitumor activity against human SW620/5-FU cells xenografted in nude mouse assessed as tumor volume at 15 mg/kg, iv administered once for every 3 days and measured on day 1 (reference value: 105 +/- 14 mm3); type: functional; conditions: time 1 day
SW620/5-FU [16] = assay: Antitumor activity against human SW620/5-FU cells xenografted in nude mouse assessed as tumor volume at 15 mg/kg, iv administered once daily and measured on day 15 (reference value: 1991 +/- 469 mm3); type: functional; conditions: time 15 day
SW620/5-FU [17] = assay: Antitumor activity against human SW620/5-FU cells xenografted in nude mouse assessed as tumor wight at 15 mg/kg, iv administered once for every 3 days (reference value: 1.3 +/- 0.6 g); type: functional
SW620/5-FU [18] = assay: Antitumor activity against human SW620/5-FU cells xenografted in nude mouse assessed as tumor wight at 15 mg/kg/day, iv (reference value: 1.3 +/- 0.6 g); type: functional
SW620/5-FU [19] = assay: Antitumor activity against human SW620/5-FU cells xenografted in nude mouse assessed as tumor growth inhibition at 15 mg/kg, iv administered once for every 3 days; type: functional; conditions: 72 h, read-out: TGI
SW620/5-FU [20] = assay: Antitumor activity against human SW620/5-FU cells xenografted in nude mouse assessed as tumor growth inhibition at 15 mg/kg/day, iv; type: functional; conditions: read-out: TGI

Compound: O=c1[nH]cc(F)c(=O)[nH]1 [FLUOROURACIL]
- Activity (SW620/5-FU [1]): 102 mm3
- Activity (HT-29 [2]): 5.14%
- IC50 (HCT-116 [3]): 21.5 µM
- IC50 (SW-620 [4]): 13.2 µM
- Activity (HCT-116 [5]): >70%
- Activity (SW-620 [6]): >70%
- Activity (HT-29 [7]): >70%
- Activity (HCT-116 [8]): 8.12%
- Activity (SW620/5-FU [9]): 9.13%
- Activity (NCM460): 25.33%
- viability at 40 µM (SW620/5-FU [10]): 87.7%
- Activity (SW620/5-FU [11]): 4.41%
- Activity (SW620/5-FU [12]): 7.76%
- Activity (SW620/5-FU [13]): 0.17%
- Activity (SW620/5-FU [14]): 1675 mm3
- Activity (SW620/5-FU [15]): 104 mm3
- Activity (SW620/5-FU [16]): 1256 mm3
- Activity (SW620/5-FU [17]): 1.1 g
- Activity (SW620/5-FU [18]): 0.8 g
- inhibition in vivo at 15 mg/kg (SW620/5-FU [19]): 15.9%
- inhibition in vivo at 15 mg/kg/day (SW620/5-FU [20]): 36.9%
